Literature values in PMC6277767, “Broad and Region-Specific Impacts of the Synthetic Cannabinoid CP 55,940 in Adolescent and Adult Female Mouse Brains” (Frontiers in Molecular Neuroscience, 2018).

Assays:
[1] = system: BV-2 microglial cells; parameters: method as in Rimmerman et al., 2012; conditions: ref Rimmerman et al., 2012; cited from earlier work
[2] = system: DAGLα; parameters: method as in Ogasawara et al., 2016; conditions: reductions measured at 2 h and 4 h post-injection; ref Ogasawara et al., 2016; cited from earlier work
[3] = system: human peripheral blood mononuclear cells; parameters: method as in Bileck et al., 2016; conditions: 10 μM for 3 h; ref Bileck et al., 2016; cited from earlier work
[4] = system: CB1; parameters: method as in Felder et al., 1995; conditions: ref Felder et al., 1995; read-out: IC50, inhibition of adenylate cyclase at CB1; cited from earlier work
[5] = parameters: method as in Leishman et al., 2018; conditions: acute exposure, all age groups; ref Leishman et al., 2018; cited from earlier work
[6] = system: CB1; conditions: ref Brents et al., 2011; read-out: EC50, stimulated G-protein binding at CB1; cited from earlier work
[7] = system: CB2; parameters: method as in Felder et al., 1995; conditions: ref Felder et al., 1995; read-out: IC50, inhibition of adenylate cyclase at CB2; cited from earlier work

Structure (SMILES): C=C(C)[C@@H]1CCC(C)=C[C@H]1c1c(O)cc(CCCCC)cc1O [CBD, cannabidiol]
- levels of AEA [1]: increased

Structure (SMILES): C#CCO[C@@H]1CC[C@H](Cc2ccccc2)N(C(=O)n2ncc(C(O)(c3ccc(F)cc3)c3ccc(F)cc3)n2)C1 [DH376]
- time for reduced 2-AG, AA and AEA levels to return to baseline [2]: ≤ 8 h

Structure (SMILES): CCCCCCCC(C)(C)c1ccc([C@H]2CCC[C@@H](O)C2)c(O)c1 [CP 47,497-C8]
- expression of 5-LOX compared to vehicle [3]: 26 fold
- expression of fatty acid synthase [3]: over twofold

Structure (SMILES): CCCCCc1cc(O)c2c(c1)OC(C)(C)[C@@H]1CCC(C)=C[C@@H]21 [THC, Δ^9-tetrahydrocannabinol]
- brain area with highest THC levels [5]: HIPP
- IC50 [7]: 0.0418 µM
